Source: US8501936B2 (priority 2009, dated 2013)
Read-outs that look alike come from different tables or passages of the source.

Experiments:
human FAK [1] = molecular target: T1, human FAK (Homo sapiens (Human), UniProt Q05397); test: biochemical
Description: (§1) The ability of compounds to inhibit the kinase activity of baculovirus-expressed human FAK and PYK2 was measured using the 96-well plate TRF assay system described above for JAK2. […] For the FAK kinase assay, the reaction mixture (total volume=100 μL/well) contained 20 mM HEPES (pH 7.2), 10 μM ATP, 5 mM MgCl2, 0.5 mM DTT, 0.1% BSA, and test compound (diluted in DMSO; 2.5% DMSO final in assay). For PYK2, the 100 μL assay solution consisted of 20 mM HEPES (pH 7.2), 3 μM ATP, 5 mM MnCl2, 0.1% BSA, and test compound (diluted in DMSO; 2.5% DMSO final in assay). Enzyme (10 ng/mL FAK or 25 ng/mL PYK2) was added and the reaction was allowed to proceed at room temperature for 30 min. Detection of the phosphorylated product was performed by adding 100 μL/well of Eu—N1 labeled PY100 antibody diluted 1:75000 in 0.25% BSA in TBS-T (PerkinElmer #AD0041). […] Inhibition data were analyzed using ActivityBase and IC50 curves generated using XLFit.

human JAK2 [2] = molecular target: T2, human JAK2 (Homo sapiens (Human), UniProt O60674); test: biochemical
human JAK2 [3] = molecular target: T2, human JAK2; conditions: read-out: JAK2 IC50
human FAK [4] = molecular target: T1, human FAK; conditions: read-out: FAK IC50
Description: as §1

T2 sequence (O60674 815-1132): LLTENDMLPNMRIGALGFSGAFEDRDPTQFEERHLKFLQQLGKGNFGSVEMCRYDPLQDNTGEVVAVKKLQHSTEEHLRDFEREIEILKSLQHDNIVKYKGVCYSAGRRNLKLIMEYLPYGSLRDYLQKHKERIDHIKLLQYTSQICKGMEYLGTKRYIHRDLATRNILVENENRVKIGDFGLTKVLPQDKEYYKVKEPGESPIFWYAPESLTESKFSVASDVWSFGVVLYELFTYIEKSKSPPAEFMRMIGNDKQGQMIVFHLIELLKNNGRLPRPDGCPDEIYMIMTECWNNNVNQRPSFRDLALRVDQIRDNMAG
T1 sequence (Q05397 whole entry): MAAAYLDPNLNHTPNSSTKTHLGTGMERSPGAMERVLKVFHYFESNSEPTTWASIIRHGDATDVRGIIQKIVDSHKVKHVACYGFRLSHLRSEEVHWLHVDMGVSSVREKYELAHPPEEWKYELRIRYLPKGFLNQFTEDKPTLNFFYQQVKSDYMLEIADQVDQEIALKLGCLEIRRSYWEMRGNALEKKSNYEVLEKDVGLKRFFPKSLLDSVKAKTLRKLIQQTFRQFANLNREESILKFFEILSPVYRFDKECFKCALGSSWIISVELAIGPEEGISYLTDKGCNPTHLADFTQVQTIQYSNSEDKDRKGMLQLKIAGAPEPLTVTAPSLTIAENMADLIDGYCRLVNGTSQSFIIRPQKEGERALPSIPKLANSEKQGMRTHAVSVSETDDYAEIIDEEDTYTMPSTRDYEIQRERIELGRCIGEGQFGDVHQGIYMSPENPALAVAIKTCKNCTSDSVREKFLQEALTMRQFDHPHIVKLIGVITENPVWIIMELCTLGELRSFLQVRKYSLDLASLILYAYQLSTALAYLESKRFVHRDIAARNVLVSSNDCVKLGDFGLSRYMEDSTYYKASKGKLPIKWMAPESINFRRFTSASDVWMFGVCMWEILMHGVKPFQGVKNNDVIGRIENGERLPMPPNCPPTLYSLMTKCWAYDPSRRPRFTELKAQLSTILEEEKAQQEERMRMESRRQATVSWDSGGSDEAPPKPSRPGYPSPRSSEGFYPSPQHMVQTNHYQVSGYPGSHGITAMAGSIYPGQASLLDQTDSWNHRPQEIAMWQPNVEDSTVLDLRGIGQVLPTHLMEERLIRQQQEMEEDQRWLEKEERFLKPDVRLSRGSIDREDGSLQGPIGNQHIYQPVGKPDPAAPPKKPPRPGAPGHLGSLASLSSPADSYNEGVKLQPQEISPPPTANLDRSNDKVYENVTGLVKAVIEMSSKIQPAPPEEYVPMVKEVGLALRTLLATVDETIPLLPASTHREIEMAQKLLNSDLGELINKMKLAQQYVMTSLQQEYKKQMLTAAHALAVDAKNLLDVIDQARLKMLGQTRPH

Structure (SMILES) | IC50 (human FAK [1]) | IC50 (human JAK2 [2]) | IC50 (human JAK2 [3]) | IC50 (human FAK [4])
CS(=O)(=O)c1ccc(-c2cccn3nc(Nc4cccc([C@@H]5CCNC[C@@H]5O)c4)nc23)cc1 (racemic) [Example 188, (±)-(cis)-4-{3-[8-(4-Methanesulfonyl-phenyl)-[1,2,4]triazolo[1,5-a]pyridin-2-ylamino]-phenyl}-piperidin-3-ol] | 1940 nM | 1.43 nM | – | –
CN1CCN(c2ccc(Nc3nc4c(NCc5ccccc5CN(C)S(C)(=O)=O)cccn4n3)cc2)CC1 [Example 156, N-Methyl-N-[2-({2-[4-(4-methyl-piperazin-1-yl)-phenylamino]-[1,2,4]triazolo[1,5-a]pyridin-8-ylamino}-methyl)-benzyl]-methanesulfonamide] | – | – | 35.4 nM | 179 nM
CS(=O)(=O)c1ccc(-c2cccn3nc(Nc4cccc(N5CCC(N6CCOCC6)CC5)c4)nc23)cc1 [Example 57, [8-(4-Methanesulfonyl-phenyl)-[1,2,4]triazolo[1,5-a]pyridin-2-yl]-[3-(4-morpholin-4-yl-piperidin-1-yl)-phenyl]-amine] | – | 0.5 nM | – | 1180 nM
CN1CCN(c2cccc(Nc3nc4c(-c5ccc(S(C)(=O)=O)cc5)cccn4n3)c2)CC1 [Example 35, [8-(4-Methanesulfonyl-phenyl)-[1,2,4]triazolo[1,5-a]pyridin-2-yl]-[3-(4-methyl-piperazin-1-yl)-phenyl]-amine] | – | – | 1.3 nM | 1060 nM
CN1CCN(c2ccc(Nc3nc4c(/C=C/c5ccccc5N(C)S(C)(=O)=O)cccn4n3)cc2)CC1 [Example 196, N-Methyl-N-[2-((E)-2-{2-[4-(4-methyl-piperazin-1-yl)-phenylamino]-[1,2,4]triazolo[1,5-a]pyridin-8-yl}-vinyl)-phenyl]-methanesulfonamide] | – | – | 32.1 nM | 999 nM
